Measurements: patent publication US12268689B2, “Eutectic form A of Elagolix and pyrimethamine, preparation method therefor and use thereof” (Shenzhen Rentai Pharmatech Ltd., priority 2019, dated 2025)
“Also recorded” adds a separate entry of the source.

What was measured:
Format in all cases: physicochemical
[1] = Light stability test (25° C., 4500 Lux, 30 days; HPLC purity and XRPD); details: light conditions
Method: (§1) Light stability: samples of a raw drug of Elagolix sodium and an eutectic form A formed by Elagolix and pyrimethamine (prepared in Comparative example 1 and Example 1, respectively) were taken and separately placed at 25° C. under light conditions of 4500 Lux for 30 days, sampling was conducted at fixed time points on day 5, day 10 and day 30, respectively to determine the XRPD pattern of the eutectic form A, and the content of Elagolix in the raw drug of Elagolix sodium and the eutectic form A, and the determined XRPD pattern of the eutectic form A, and the determined content of Elagolix in the raw drug of Elagolix sodium and the eutectic form A were compared with those on day 0.
(§2) The specific stability test method can refer to the method in Appendix XIC of Part II of Chinese Pharmacopoeia (2015 Edition); and the purity was detected by an HPLC method, and can be determined by an external standard method with reference to the method in Appendix VD of Chinese Pharmacopoeia (2015 Edition) by using the sample on day 0 as a control.
(§3) Operating Conditions for HPLC
• Instrument: high performance liquid chromatograph (model: Agilent Technologies 1260) • Chromatographic column: shiseido CAPCELL PAK C18 column (5 μm, 250 mm×4.6 mm) Mobile Phase Composition and Gradient Elution Procedure: […]

[2] = High temperature stability test (60° C., 30 days; HPLC purity and XRPD)
Method: as §1, with “High temperature” for “Light”, “60°” for “25°”, “C.” for “C. under light conditions of 4500 Lux”, “of” for “of Elagolix in”
as §2, §3
(§4) • Instrument: high performance liquid chromatograph (model: Agilent Technologies 1260) • Chromatographic column: shiseido CAPCELL PAK C18 column (5 μm, 250 mm×4.6 mm) Mobile Phase Composition and Gradient Elution Procedure:
(§5) • Detection wavelength: 254 nm • Flow rate: 1 mL/min • Injection volume: 10 μL • Column temperature: 30° C.

[3] = High humidity stability test (25° C., 92.5% RH, 30 days; HPLC purity and XRPD)
Method: as §1, with “High humidity” for “Light”, “at 92.5% RH” for “under light conditions of 4500 Lux”, “of” for “of Elagolix in”
as §2, §3, §4, §5

Light stability (in words) [1]: not good; also recorded: unstable
High temperature stability (in words) [2]: not good; also recorded: unstable
High humidity stability (in words) [3]: not good; also recorded: unstable
SMILES: COc1cccc(-c2c(C)n(Cc3c(F)cccc3C(F)(F)F)c(=O)n(C[C@H](NCCCC(=O)O)c3ccccc3)c2=O)c1F [Elagolix sodium]
